Experimental data from ChEMBL document CHEMBL1201862, “PubChem BioAssay data set” (2004).
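Assay format: 96-well plates, 48-hour exposure. GI50 marks 50% less growth.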 The source made the active and inactive calls. No stated cut-off is given here; in the data, active = GI50 up to about 1.1 µM and inactive = higher.

Tests used:
Assay in all cases: NCI-60 cell line screen, 48 h
MOLT-4 = tested on: MOLT-4
A549 = tested on: A549
HCT-15 = tested on: HCT-15
EKVX = tested on: EKVX
NCI-H23 = tested on: NCI-H23
SF-539 = tested on: SF-539
COLO 205 = tested on: COLO 205
SF-295 = tested on: SF-295
Malme-3M = tested on: Malme-3M
OVCAR-5 = tested on: OVCAR-5
ACHN = tested on: ACHN
OVCAR-3 = tested on: OVCAR-3
SK-MEL-2 = tested on: SK-MEL-2
NCI-H226 = tested on: NCI-H226
NCI-H460 = tested on: NCI-H460
HL-60 = tested on: HL-60
SF-268 = tested on: SF-268
SK-MEL-5 = tested on: SK-MEL-5
SW-620 = tested on: SW-620
NCI/ADR-RES = tested on: NCI/ADR-RES

Row | SMILES | GI50 (MOLT-4) | GI50 (A549) | GI50 (HCT-15) | GI50 (EKVX) | GI50 (NCI-H23) | GI50 (SF-539) | GI50 (COLO 205) | GI50 (SF-295) | GI50 (Malme-3M) | GI50 (OVCAR-5) | GI50 (ACHN) | GI50 (OVCAR-3) | GI50 (SK-MEL-2) | GI50 (NCI-H226) | GI50 (NCI-H460) | GI50 (HL-60) | GI50 (SF-268) | GI50 (SK-MEL-5) | GI50 (SW-620) | GI50 (NCI/ADR-RES)
1 | O=C(CC1(O)C(=O)Nc2ccccc21)c1ccccc1O (centres undefined) | > 100 µM (inactive) | > 100 µM (inactive) | > 100 µM | > 100 µM (inactive) | > 100 µM (inactive) | > 100 µM (inactive) | > 100 µM (inactive) | > 100 µM (inactive) | > 100 µM (inactive) | > 100 µM (inactive) | > 100 µM (inactive) | > 100 µM (inactive) | > 100 µM (inactive) | > 100 µM (inactive) | > 100 µM (inactive) | > 100 µM (inactive) | > 100 µM (inactive) | > 100 µM (inactive) | > 100 µM (inactive) | –
2 | COc1cccc(C2CC(=O)c3cc(N4CCCC4)ccc3N2)c1 (centres undefined) | 0.0338 µM (active) | 0.036 µM (active) | 0.0335 µM | 0.27 µM (active) | 0.0265 µM (active) | 0.0272 µM (active) | 0.0365 µM (active) | 0.0358 µM (active) | – | 0.0608 µM (active) | 0.0832 µM (active) | 0.0344 µM (active) | 0.0296 µM (active) | 0.0385 µM (active) | 0.0402 µM (active) | – | 0.0692 µM (active) | 0.0252 µM (active) | 0.0243 µM (active) | 0.0173 µM (active)
3 | CC(C)(C)c1cc2c(OP(c3ccccc3)c3ccccc3)c(c1)Cc1cc(C(C)(C)C)cc(c1OP(c1ccccc1)c1ccccc1)Cc1cc(C(C)(C)C)cc(c1OP(c1ccccc1)c1ccccc1)Cc1cc(C(C)(C)C)cc(c1OP(c1ccccc1)c1ccccc1)C2 | > 5 µM (inactive) | > 5 µM (inactive) | > 5 µM | > 5 µM (inactive) | > 5 µM (inactive) | > 5 µM (inactive) | > 5 µM (inactive) | > 5 µM (inactive) | > 5 µM (inactive) | > 5 µM (inactive) | > 5 µM (inactive) | > 5 µM (inactive) | > 5 µM (inactive) | > 5 µM (inactive) | > 5 µM (inactive) | > 5 µM (inactive) | > 5 µM (inactive) | > 5 µM (inactive) | > 5 µM (inactive) | –
4 | O=[N+]([O-])/C(C(Cl)=C(Cl)Cl)=C(\Nc1cccc2cccnc12)Sc1ccccc1 | 12.9 µM (inactive) | 29.9 µM (inactive) | 17.5 µM | 27.4 µM (inactive) | 18.3 µM (inactive) | 20.8 µM (inactive) | 17.1 µM (inactive) | 19 µM (inactive) | 23.1 µM (inactive) | 20.8 µM (inactive) | 22.8 µM (inactive) | 11.4 µM (inactive) | 17.1 µM (inactive) | 28.6 µM (inactive) | 34.4 µM (inactive) | – | 17.9 µM (inactive) | – | 18 µM (inactive) | 22.1 µM (inactive)
5 | CN(C)N1C(=O)c2ccccc2NC1c1ccccc1 (centres undefined) | > 100 µM (inactive) | > 100 µM (inactive) | > 100 µM | > 100 µM (inactive) | > 100 µM (inactive) | > 100 µM (inactive) | > 100 µM (inactive) | > 100 µM (inactive) | > 100 µM (inactive) | > 100 µM (inactive) | > 100 µM (inactive) | > 100 µM (inactive) | > 100 µM (inactive) | > 100 µM (inactive) | > 100 µM (inactive) | – | > 100 µM (inactive) | > 100 µM (inactive) | > 100 µM (inactive) | > 100 µM (inactive)
6 | COC(=O)C12Oc3ccc(-c4ccc5c(c4O)C(=O)C4=CCC(C)C(O)C4(C(=O)OC)O5)c(O)c3C(=O)C1=CCC(C)C2O (centres undefined) | 5.66 µM (inactive) | 1.94 µM (inactive) | 1.08 µM | 1.88 µM (inactive) | 1.37 µM (inactive) | 2.89 µM (inactive) | 1.32 µM (inactive) | 2.02 µM (inactive) | 1.53 µM (inactive) | 2.13 µM (inactive) | 1.34 µM (inactive) | 1.36 µM (inactive) | 1.41 µM (inactive) | 2.09 µM (inactive) | 1.97 µM (inactive) | 0.935 µM (active) | 1.1 µM (active) | 1.63 µM (inactive) | 0.836 µM (active) | –
7 | O=C1c2ccccc2C(=O)c2c1ccc1c3ccccc3n(Cc3ccccc3)c21 | > 100 µM (inactive) | > 100 µM (inactive) | > 100 µM | > 100 µM (inactive) | – | > 100 µM (inactive) | > 100 µM (inactive) | > 100 µM (inactive) | > 100 µM (inactive) | > 100 µM (inactive) | 94.2 µM (inactive) | > 100 µM (inactive) | > 100 µM (inactive) | 54.6 µM (inactive) | 88.9 µM (inactive) | > 100 µM (inactive) | > 100 µM (inactive) | > 100 µM (inactive) | > 100 µM (inactive) | –
8 | CC(=O)N(C(C)=O)n1c(-c2ccccc2)n[nH]c1=O | > 100 µM (inactive) | > 100 µM (inactive) | > 100 µM | > 100 µM (inactive) | > 100 µM (inactive) | > 100 µM (inactive) | > 100 µM (inactive) | > 100 µM (inactive) | – | > 100 µM (inactive) | > 100 µM (inactive) | > 100 µM (inactive) | > 100 µM (inactive) | – | – | – | > 100 µM (inactive) | > 100 µM (inactive) | > 100 µM (inactive) | > 100 µM (inactive)
9 | C[C@@H](O)CCC(=O)c1ccoc1 | > 100 µM (inactive) | > 100 µM (inactive) | > 100 µM | > 100 µM (inactive) | > 100 µM (inactive) | > 100 µM (inactive) | > 100 µM (inactive) | > 100 µM (inactive) | > 100 µM (inactive) | > 100 µM (inactive) | > 100 µM (inactive) | > 100 µM (inactive) | > 100 µM (inactive) | > 100 µM (inactive) | > 100 µM (inactive) | > 100 µM (inactive) | > 100 µM (inactive) | > 100 µM (inactive) | > 100 µM (inactive) | –
10 | COC(=O)n1c(C[P+](c2ccccc2)(c2ccccc2)c2ccccc2)cc2ccccc21 | 1.64 µM (inactive) | 2.22 µM (inactive) | 13.3 µM | 0.774 µM (active) | 1.86 µM (inactive) | 3.17 µM (inactive) | 1.26 µM (inactive) | 2.29 µM (inactive) | 3.47 µM (inactive) | 2.11 µM (inactive) | 3.87 µM (inactive) | 1.01 µM (active) | 0.661 µM (active) | 1.73 µM (inactive) | 1.43 µM (inactive) | 0.869 µM (active) | 2.93 µM (inactive) | 0.414 µM (active) | 1.85 µM (inactive) | –
11 | Nc1ncnc2c1ncn2CC(OCP(=O)(O)O)Oc1ccccc1 (centres undefined) | – | > 100 µM (inactive) | > 100 µM | > 100 µM (inactive) | – | > 100 µM (inactive) | > 100 µM (inactive) | > 100 µM (inactive) | – | > 100 µM (inactive) | > 100 µM (inactive) | > 100 µM (inactive) | > 100 µM (inactive) | > 100 µM (inactive) | – | – | > 100 µM (inactive) | > 100 µM (inactive) | > 100 µM (inactive) | > 100 µM (inactive)
12 | CNC(=O)N(CCC#N)CCN(CCN(C(=O)NC)c1ccccc1)C(=O)NC | > 100 µM (inactive) | > 100 µM (inactive) | > 100 µM | > 100 µM (inactive) | > 100 µM (inactive) | > 100 µM (inactive) | > 100 µM (inactive) | > 100 µM (inactive) | > 100 µM (inactive) | > 100 µM (inactive) | > 100 µM (inactive) | > 100 µM (inactive) | > 100 µM (inactive) | > 100 µM (inactive) | > 100 µM (inactive) | – | – | > 100 µM (inactive) | > 100 µM (inactive) | > 100 µM (inactive)
13 | CCn1ncc2c1nc(-c1ccccc1)c[n+]2[O-] | > 100 µM (inactive) | > 100 µM (inactive) | > 100 µM | > 100 µM (inactive) | > 100 µM (inactive) | > 100 µM (inactive) | > 100 µM (inactive) | > 100 µM (inactive) | – | > 100 µM (inactive) | > 100 µM (inactive) | > 100 µM (inactive) | > 100 µM (inactive) | – | > 100 µM (inactive) | – | > 100 µM (inactive) | – | – | > 100 µM (inactive)
14 | O=S(=O)(N/N=C/c1cccc(Cl)c1Cl)c1ccccc1 | 26.9 µM (inactive) | > 100 µM (inactive) | 98.2 µM | > 100 µM (inactive) | 45.6 µM (inactive) | 80 µM (inactive) | 89.7 µM (inactive) | 79.6 µM (inactive) | > 100 µM (inactive) | > 100 µM (inactive) | 55 µM (inactive) | > 100 µM (inactive) | 58.6 µM (inactive) | > 100 µM (inactive) | > 100 µM (inactive) | 39.9 µM (inactive) | 35.5 µM (inactive) | 43.6 µM (inactive) | > 100 µM (inactive) | –
15 | Cc1c(Cc2ccccc2)n(C(C)OCCN(OC(=O)Oc2ccccc2)C(=O)Oc2ccccc2)c(=O)[nH]c1=O (centres undefined) | 14.5 µM (inactive) | 25.2 µM (inactive) | 14.6 µM | 14.4 µM (inactive) | 16.3 µM (inactive) | 19.1 µM (inactive) | 18.3 µM (inactive) | 16 µM (inactive) | – | 17.2 µM (inactive) | 26.3 µM (inactive) | 19 µM (inactive) | 19.7 µM (inactive) | – | 17.8 µM (inactive) | – | 14.7 µM (inactive) | 14.3 µM (inactive) | 20.7 µM (inactive) | 16.9 µM (inactive)
16 | COC(=O)C1(CCCCl)CCCN1C(=O)OC(C)(C)C (centres undefined) | – | > 100 µM (inactive) | > 100 µM | > 100 µM (inactive) | > 100 µM (inactive) | – | > 100 µM (inactive) | > 100 µM (inactive) | – | > 100 µM (inactive) | > 100 µM (inactive) | > 100 µM (inactive) | > 100 µM (inactive) | 75.5 µM (inactive) | > 100 µM (inactive) | – | > 100 µM (inactive) | > 100 µM (inactive) | > 100 µM (inactive) | > 100 µM (inactive)
